Test [1] addresses Delta-type opioid receptor (Mus musculus) (UniProt P32300). The test is described as follows: Antagonistic activity against Opioid receptor delta 1 using [D-Ala2,D-Leu5]enkephalin in mouse vas deferens preparation. The test is classed as functional.
Test [2] addresses Mu-type opioid receptor (Cavia porcellus) (UniProt P97266). The following applies: Ileum.
Description: Antagonistic activity against Opioid receptor mu 1 receptor using morphine in guinea pig ileum preparation
Test [3] has as its target Kappa-type opioid receptor (Cavia porcellus) (UniProt P41144). The test is described as follows: Antagonistic activity against Opioid receptor kappa 1 using ethylketazocine in guinea pig ileum preparation. The test is classed as functional, tissue-based.
Test [4] concerns the target Mu-type opioid receptor (Cavia porcellus) (UniProt P97266). The test is described as follows: Antagonistic activity against Opioid receptor mu 1 using morphine in guinea pig ileum preparation; D means no significant antagonism at 200 nM. The class given is functional, tissue-based.
Test [5] deals with Kappa-type opioid receptor (Cavia porcellus) (UniProt P41144). The test is described as follows: Antagonistic activity against Opioid receptor kappa 1 using ethylketazocine in guinea pig ileum preparation; No significant antagonism at 200 nM. The class given is functional, tissue-based.
Sequence of Kappa-type opioid receptor (Cavia porcellus) (P41144 whole entry): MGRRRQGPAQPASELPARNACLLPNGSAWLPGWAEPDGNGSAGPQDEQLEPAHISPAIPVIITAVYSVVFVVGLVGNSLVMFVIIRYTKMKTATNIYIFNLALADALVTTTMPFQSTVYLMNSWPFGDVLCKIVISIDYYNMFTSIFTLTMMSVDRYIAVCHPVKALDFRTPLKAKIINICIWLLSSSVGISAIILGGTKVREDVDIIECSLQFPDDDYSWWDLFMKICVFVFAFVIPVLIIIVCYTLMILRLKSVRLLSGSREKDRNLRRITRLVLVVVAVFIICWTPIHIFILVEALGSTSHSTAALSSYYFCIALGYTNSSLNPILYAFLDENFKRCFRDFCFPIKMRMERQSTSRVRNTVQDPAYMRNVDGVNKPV
In test [6] the target is Mu-type opioid receptor (Cavia porcellus) (UniProt P97266). As to the kind of experiment: Antagonistic activity against Opioid receptor mu 1 using morphine in guinea pig ileum preparation. The class given is functional, tissue-based.
Sequence of Mu-type opioid receptor (Cavia porcellus) (P97266 whole entry): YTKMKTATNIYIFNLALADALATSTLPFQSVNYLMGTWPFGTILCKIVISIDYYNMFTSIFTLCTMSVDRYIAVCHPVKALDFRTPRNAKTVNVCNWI

Active and inactive are the calls of the source. No cut-off for these calls is given here.

Sequence of Delta-type opioid receptor (Mus musculus) (P32300 whole entry): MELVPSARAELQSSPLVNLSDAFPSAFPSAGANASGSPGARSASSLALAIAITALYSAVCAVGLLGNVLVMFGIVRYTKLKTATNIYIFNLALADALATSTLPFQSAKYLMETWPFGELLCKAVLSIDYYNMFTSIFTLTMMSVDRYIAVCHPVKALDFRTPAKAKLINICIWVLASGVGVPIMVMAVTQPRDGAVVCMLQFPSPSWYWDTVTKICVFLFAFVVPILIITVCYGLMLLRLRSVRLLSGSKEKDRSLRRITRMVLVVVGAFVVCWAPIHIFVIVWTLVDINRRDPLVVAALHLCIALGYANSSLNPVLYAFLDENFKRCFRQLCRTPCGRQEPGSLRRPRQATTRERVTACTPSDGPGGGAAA

Consider `Oc1ccc2c3c1O[C@H]1c4[nH]c5ccccc5c4C[C@@]4(O)[C@@H](C2)N(CC2CC2)CC[C@]314`, for which the values for the Ke in test [1], in test [2] and in test [3] were 0.21 nM, 32 nM and 58 nM, respectively.

Consider `Cc1ccc2[nH]c3c(c2c1)C[C@@]1(O)[C@H]2Cc4ccc(O)c5c4[C@@]1(CCN2CC1CC1)[C@H]3O5`, for which the Ke result in test [4] and in test [5] was “inactive” each time. The same compound yielded a Ke in test [1] of 4.2 nM.

In the case of `Oc1ccc2c3c1O[C@H]1c4[nH]c5ccc(F)cc5c4C[C@@]4(O)[C@@H](C2)N(CC2CC2)CC[C@]314`, the Ke was found to be 2 nM in test [1], 61 nM in test [2] and 46 nM in test [3].

On to `Oc1ccc2c3c1O[C@H]1c4oc5ccccc5c4C[C@@]4(O)[C@@H](C2)N(CC2CC2)CC[C@]314`, for which the Ke in test [1] was 1.1 nM; in test [6], 27 nM; in test [3], 48 nM.

Take `COc1ccc2[nH]c3c(c2c1)C[C@@]1(O)[C@H]2Cc4ccc(O)c5c4[C@@]1(CCN2CC1CC1)[C@H]3O5`: the Ke amounted to 5.7 nM in test [1], 63 nM in test [6] and 13 nM in test [3].

The values are drawn from ChEMBL document CHEMBL1124243, “Application of the message-address concept in the design of highly potent and selective non-peptide delta opioid receptor antagonists” (J Med Chem, 1988).
